Reference: patent publication EP0463514B1, “3.3'-Dithiobis (propionic acids) and esters thereof” (priority 1990, dated 1992)
Marks after values point to notes of the source that are not given here.

System: delayed type hypersensitivity (DTH) reaction
Test: Delayed type hypersensitivity (DTH) reaction in the mouse, OXA sensitization and ear challenge, ear thickness
Assay type: in vivo, Balb/c mice
Conditions: oral feeding from sensitization to Day 6, 100 = doubled ear thickness; for % Increase, 48h: increase in ear thickness 48 hours after OXA challenge
From the text: The property of the compounds of the invention to stimulate immune responses are illustrated by their efficacy in a model in the mouse of the delayed type hypersensitivity (DTH) reaction.
Both male and female Balb/c mice obtained from Bomhotsgaard (Denmark) and Charlie Rivers (England), were used at the weight of 18-20 gram. 4-ethoxymethylene-2-phenyloxazolone (OXA) was purchased from BDH (England) and served as an antigen in this test.
The mice were sensitized, Day 0, by epicutaneous application of 150 ul absolute ethanol-acetone (3:1) solution containing 3% OXA on the shaved thorax and abdomen. Treatment with the compound under examination, DiNAC (as a positive control) or vehicle (phosphate buffer, pH 7.0) was initiated by oral feeding immediately after sensitization and contiuned once to Day 6. […] (Day 6) after the sensitization both ears of all mice were challenged on both sides by topical application of 20 ul 1% OXA dissolved in olive oil. Ear thickness was measured prior to and 24 or 48 hours after challenge using an Oditest spring calliper. Challenges and measurements were performed under light pentobarbital anaesthesia. The intensity of the DTH reactions was expressed according to the formula: Tt24/48-Tt0 um units, where t0 and t24/48 represent the ear thickness before and 24 or 48 hours after challenge, respectively, in individual test (T). The results were expressed as the mean+/-S.E.M. The level of significance between means of the groups was obtained by Student's two-tailed t-test. […] A figure of 100 thus indicates a doubled ear thickness.

Row | Compound | % Increase, 48h (0.03 »mol/kg) | % Increase, 48h | % Increase, 24h (increase in ear thickness 24 hours after OXA challenge, 0.03 »mol/kg)
1 | CCCCCC(=O)N[C@@H](CSSC[C@H](NC(=O)CCCCC)C(=O)OC)C(=O)OC [Example 9, (R,R)-N,N'-dihexanoyl-3,3'-dithiobis(2-aminopropionic acid)dimethylester] | 51*** % | 45*** % | –
2 | CCCCCCCC(=O)N[C@@H](CSSC[C@H](NC(=O)CCCCCCC)C(=O)OC)C(=O)OC [Example 10, (R,R)-N,N'-di(1-oxo-octyl)-3,3'-dithiobis-(2-aminopropionic acid)dimethylester] | 28** % | 20* % | –
3 | CCCCCCCC(=O)N[C@@H](CSSC[C@H](NC(=O)CCCCCCC)C(=O)OCC)C(=O)OCC [Example 11, (R,R)-N,N'-di(1-oxo-octyl)-3,3'-dithiobis(2-aminopropionic acid)diethylester] | 0% | 0% | –
4 | COC(=O)[C@H](CSSC[C@H](NC(=O)C(C)C)C(=O)OC)NC(=O)C(C)C [Example 14, (R,R)-N,N'-di(2-methylpropionyl)-3,3'-dithiobis(2-aminopropionic acid)dimethylester] | 17* % | 27*** % | –
5 | CC(C)C(=O)N[C@@H](CSSC[C@H](NC(=O)C(C)C)C(=O)O)C(=O)O [Example 16, (R,R)-N,N'-di(2-methylpropionyl)-3,3'-dithiobis(2-aminopropionic acid)] | 27** % | 62*** % | –
6 | CC(=O)N[C@@H](CSSC[C@H](NC(=O)C(C)(C)C)C(=O)O)C(=O)O [Example 20, (R,R)-N-Acetyl-N'-(2,2-dimethylpropionyl)-3,3'-dithiobis(2-aminopropionic acid)] | 14% | 17* % | –
7 | CC(C)(C)C(=O)N[C@@H](CSSC[C@H](NC(=O)C(C)(C)C)C(=O)O)C(=O)O [Example 21, (R,R)-N,N'-di(2,2-dimethylpropionyl)-3,3'-dithiobis(2-aminopropionic acid)] | 26* % | 27* % | 14* %
